Entries after “also recorded” stand apart in the source; their conditions may differ. Read-outs that look alike come from different tables or passages of the source.
Experiments:
ACE = target: T1, ACE (Rattus norvegicus, UniProt P47820); assay: ACE inhibition, rat lung source of ACE; type: biochemical; details: 10^-10 to 10^-8
T1 sequence (P47820 36-1313): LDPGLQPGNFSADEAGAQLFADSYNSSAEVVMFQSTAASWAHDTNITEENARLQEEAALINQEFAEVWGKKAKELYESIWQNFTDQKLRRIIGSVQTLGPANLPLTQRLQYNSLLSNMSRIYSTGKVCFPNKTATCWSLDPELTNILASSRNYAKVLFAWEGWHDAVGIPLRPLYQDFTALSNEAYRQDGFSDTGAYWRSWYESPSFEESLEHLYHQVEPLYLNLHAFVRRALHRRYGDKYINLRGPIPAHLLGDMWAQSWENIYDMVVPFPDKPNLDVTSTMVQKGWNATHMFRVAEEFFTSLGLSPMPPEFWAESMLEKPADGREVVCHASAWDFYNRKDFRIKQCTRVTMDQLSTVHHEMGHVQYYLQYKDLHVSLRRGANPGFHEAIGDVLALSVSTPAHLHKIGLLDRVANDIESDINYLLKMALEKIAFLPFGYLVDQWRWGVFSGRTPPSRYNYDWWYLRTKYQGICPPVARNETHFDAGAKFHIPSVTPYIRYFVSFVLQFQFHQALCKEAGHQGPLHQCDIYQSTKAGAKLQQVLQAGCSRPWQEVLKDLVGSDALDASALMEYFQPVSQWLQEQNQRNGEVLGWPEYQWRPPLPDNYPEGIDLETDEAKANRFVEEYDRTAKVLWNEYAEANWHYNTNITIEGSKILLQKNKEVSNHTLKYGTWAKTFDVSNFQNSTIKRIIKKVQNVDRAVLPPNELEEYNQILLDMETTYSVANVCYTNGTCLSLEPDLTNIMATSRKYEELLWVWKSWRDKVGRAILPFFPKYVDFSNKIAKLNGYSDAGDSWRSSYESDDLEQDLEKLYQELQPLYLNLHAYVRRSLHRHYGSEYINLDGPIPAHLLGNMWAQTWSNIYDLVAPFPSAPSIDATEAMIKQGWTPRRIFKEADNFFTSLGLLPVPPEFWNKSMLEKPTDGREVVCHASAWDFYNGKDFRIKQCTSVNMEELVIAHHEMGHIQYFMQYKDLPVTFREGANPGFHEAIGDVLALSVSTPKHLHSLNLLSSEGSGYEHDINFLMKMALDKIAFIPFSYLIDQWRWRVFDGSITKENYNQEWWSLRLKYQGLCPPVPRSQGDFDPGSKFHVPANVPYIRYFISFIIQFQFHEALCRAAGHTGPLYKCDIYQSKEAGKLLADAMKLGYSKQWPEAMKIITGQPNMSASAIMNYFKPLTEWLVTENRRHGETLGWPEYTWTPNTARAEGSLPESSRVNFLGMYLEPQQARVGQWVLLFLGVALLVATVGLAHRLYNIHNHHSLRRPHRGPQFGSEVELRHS
Description: Under the conditions of this assay (0.1M potassium phosphate, pH 8.3, 0.3M NaCl at 37°), ACE preparations generated 6.32 nmoles of product/mg protein/min.

[1] = test system: bovine femoral artery, response to bradykinin; assay: response of the bovine femoral artery to bradykinin; details: 10^-6 M
Description: (§1) Blood Vessel Preparation. Bovine coronary or femoral arteries were obtained from an abattoir immediately after sacrifice of two- to four-week-old calves. Immediately after removal, the vessel was placed in ice-cold physiologic salt solution (PSS) containing 118.3 mM NaCl, 4.7 mM KCl, 2.5 mM CaCl2, 1.2 mM MgSO4, 1.2 mM KH2 PO4, 25.0 mM NaHCO3, 11.1 mM glucose, and 0.026 mM calcium disodium (ethylenedinitrilo)-tetraacetate. The vessels were then cleaned of adventitial tissue and cut into rings of approximately 5 mm lengths. When called for by the protocol, endothelium was removed from a ring by gently rubbing the luminal surface with a watchmaker's forceps. Vascular rings with intact endothelium were then suspended in organ chambers containing 25 ml of PSS at 37° aerated with 95% O2 -5% CO2. The rings were connected to force transducers (Grass FT03C, Quincy, Mass.) and changes in isometric force recorded continuously (Grass Polygraph Model 79B) over a period of 90 minutes. The optimal length-tension relationship was determined for each ring by observing the response to 10^-6 M norepinephrine after increments in tension of 0.5 gm. The functional integrity of the endothelium was assessed by contracting the vessel with 10^-6 M norepinephrine and then observing the response to 3×10^-7 M acetylcholine chloride.
In the bovine femoral artery contracted with a concentration of norepinephrine inducing a half-maximal response, bradykinin induced a biphasic response.

bovine femoral artery = assay: relaxation of isolated bovine femoral artery rings contracted with norepinephrine; details: for IC50: Bos taurus
Description: FIG. 2 depicts a graph showing the effect of S-nitrosocaptopril on the contraction of bovine femoral arteries to norepinephrine.
as §1
Vascular ring segments with intact endothelium were […] contracted with a concentration of norepinephrine inducing a half-maximal response. After a stable contraction had been achieved, the tissue was exposed to increasing concentrations of S-nitrosocaptopril in cumulative half-log increments. […] The apparent IC50 is approximately 1 μM.

[2] = arterial pressure in the anesthetized rabbit; type: in vivo; details: 1 mM solution infused in an ear vein, 0.02 to 2.2 ml/min
Description: A 1 mM solution of S-nitrosocaptopril was infused in an ear vein of the rabbit at rates from 0.02 to 2.2 ml/min and the phasic and mean arterial pressure recorded in the femoral artery.

[3] = test system: cGMP (and cAMP) in vascular rings; assay: cGMP (and cAMP) levels in vessel ring segments; type: cell-based; details: 10^-5 M, one minute
Description: Since the postulated mechanism by which the nitrosothiol moiety of S-nitrosocaptopril directly relaxes vascular smooth muscle and attenuates the platelet aggregation response is believed to be through activation of soluble guanylate cyclase, cGMP (and cAMP) levels were measured in vessel ring segments and in platelets incubated with 10^-5 M S-nitrosocaptopril.

bovine coronary artery = assay: relaxation of isolated bovine coronary artery rings contracted with potassium chloride
Description: FIG. 5 depicts a graph showing the relaxation to sodium nitroprusside in the bovine coronary artery in the presence (o; n=7) or absence (; n:12) of a subthreshhold dose of S-nitrosocaptopril. The data are expressed as a percentage of the initial tension generated by potassium chloride (4×10^-2 M; coronary arteries) and are shown as mean ±SEM in each group.
as §1
Thus, to study vasodilating agents in this tissue the vessels were first contracted with potassium chloride (40 mM). Relaxations are expressed as a percent of the concentration to 40 mM potassium chloride.
Relaxations to S-nitrosocaptopril were inhibited by the antagonist of soluble guanylate cyclase, methylene blue (FIG. 4). Sodium nitroprusside induced dose-dependent relaxations of contractions to potassium chloride. The relaxation to sodium nitroprusside was inhibited by subthreshold doses of S-nitrosocaptopril (FIG. 5).

For `C[C@H](CSN=O)C(=O)N1CCC[C@H]1C(=O)O` [S-nitrosocaptopril], the “ACE inhibition (in words, FIG. 6)” value (ACE) was “almost complete inhibition of ACE”, the “effect on the response to bradykinin (in words)” value [1] was “Neither response to bradykinin was affected” and the IC50 (bovine femoral artery; compared with coronary artery, p<0.05, n=6, read-out: IC50 (relaxation, femoral artery)) was 5600 nM. The IC50 (bovine femoral artery; norepinephrine-contracted, intact endothelium, FIG. 2, read-out: apparent IC50 (relaxation)) was roughly 1000 nM, the “potency of vasodilation relative to S-nitroso-N-acetylpenicillamine (literature value in the bovine coronary artery)” value (bovine femoral artery; compared with Ignarro et al.) was “approximately one order of magnitude weaker” and the “relaxation response (in words)” value (bovine femoral artery; norepinephrine-contracted, FIG. 2) was “induced dose-dependant relaxation; also recorded: progressive relaxation was observed”. For the same molecule, the “effect on blood pressure (in words)” value [2] was “clear decrease in blood pressure”, the “cAMP levels, vessel rings (in words)” value [3] was “did not change from basal levels” and the “cGMP level, vascular rings” value [3] was 0.0375 pmol/mg tissue. The fold induction at 10 µM ([3]; Bos taurus, 1 min, read-out: increase of cGMP levels, vascular rings) was 36.5, the IC50 (bovine coronary artery; Bos taurus, contracted with potassium chloride (40 mM)) was 1900 nM and the Emax (bovine coronary artery; Bos taurus, contracted with potassium chloride (40 mM), read-out: maximal relaxation, coronary artery) was 97 ± 7%. The “maximum inhibitory effect / relaxation, coronary artery compared with femoral artery (in words)” value (bovine coronary artery; FIG. 3) was “significantly greater than those in the femoral artery (p<0.05); also recorded: significantly greater in the coronary artery than in the femoral artery” and the “effect on relaxation to sodium nitroprusside (in words)” value (bovine coronary artery; subthreshold doses of S-nitrosocaptopril, FIG. 5) was “inhibited”.

Reference: patent US5536723A, “S-nitroso derivatives of hydrazinoacetic acids, 1-[(acylthio and (mercapto)-1-oxoalkyl]-1,2,34-Tetrahydroquinoline-2-carboxylic acids and alanyl prolines and isoquinolines” (Brigham & Women's Hospital, priority 1994, dated 1996)
